Results as given in US11572366B2, “Heterocyclic compounds as immunomodulators” (Incyte Corporation, priority 2015, dated 2023).
pIC50: −log10 of the molar value.

Target: PD-1/PD-L1 protein/protein interaction (Homo sapiens (Human), UniProt Q9NZQ7)
Assay: PD-1/PD-L1 Homogeneous Time-Resolved Fluorescence (HTRF) binding assay
Conditions: recombinant human PD-L1 (19-238) His-tag 10 nM, human PD-1 (25-167) Fc tag 3 nM, 25° C., PBS pH 7.4
Method: Example A. PD-1/PD-L Homogeneous Time-Resolved Fluorescence (HTRF) Binding Assay
The assays were conducted in a standard black 384-well polystyrene plate with a final volume of 20 μL. Inhibitors were first serially diluted in DMSO and then added to the plate wells before the addition of other reaction components. The final concentration of DMSO in the assay was 1%. The assays were carried out at 25° C. in the PBS buffer (pH 7.4) with 0.05% Tween-20 and 0.1% BSA. Recombinant human PD-L1 protein (19-238) with a His-tag at the C-terminus was purchased from AcroBiosystems (PD1-H5229). Recombinant human PD-1 protein (25-167) with Fc tag at the C-terminus was also purchased from AcroBiosystems (PD1-H5257). PD-L1 and PD-1 proteins were diluted in the assay buffer and 10 μL was added to the plate well. Plates were centrifuged and proteins were preincubated with inhibitors for 40 minutes. The incubation was followed by the addition of 10 μL of HTRF detection buffer supplemented with Europium cryptate-labeled anti-human IgG (PerkinElmer-AD0212) specific for Fe and anti-His antibody conjugated to SureLight®-Allophycocyanin (APC, PerkinElmer-AD0059H). After centrifugation, the plate was incubated at 25° C. for 60 min. before reading on a PHERAstar FS plate reader (665 nm/620 nm ratio). Final concentrations in the assay were—3 nM PD1, 10 nM PD-L1, 1 nM europium anti-human IgG and 20 nM anti-His-Allophycocyanin.IC50 determination was performed by fitting the curve of percent control activity versus the log of the inhibitor concentration using the GraphPad Prism 5.0 software.

Chain of PD-1/PD-L1 protein/protein interaction (Q9NZQ7 19-238): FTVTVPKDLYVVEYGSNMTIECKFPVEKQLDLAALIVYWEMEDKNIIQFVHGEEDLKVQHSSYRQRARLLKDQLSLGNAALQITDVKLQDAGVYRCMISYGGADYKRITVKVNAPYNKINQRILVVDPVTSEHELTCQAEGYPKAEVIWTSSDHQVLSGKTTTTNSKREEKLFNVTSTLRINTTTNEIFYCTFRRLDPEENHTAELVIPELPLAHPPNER

Compound | pIC50
Cc1c(-c2ccccc2)cccc1-c1cc2ccc(CNCCO)nc2o1 [Example 1, 2-({[2-(2-methylbiphenyl-3-yl)furo[2,3-b]pyridin-6-yl]methyl}amino)ethanol] | 7.00 to 8.00
Cc1c(-c2ccccc2)cccc1-c1cc2ccc(CN3CCCC[C@H]3C(=O)O)nc2o1 [Example 2, (2S)-1-{[2-(2-methylbiphenyl-3-yl)furo[2,3-b]pyridin-6-yl]methyl}piperidine-2-carboxylic Acid] | 6.00 to 7.00
Cc1c(-c2ccccc2)cccc1-c1cc2nc(CNCCO)cc(C)c2o1 [Example 3, 2-({[7-methyl-2-(2-methylbiphenyl-3-yl)furo[3,2-b]pyridin-5-yl]methyl}amino)ethanol] | 7.00 to 8.00
Cc1c(-c2ccccc2)cccc1-c1cc2nc(CN3CCCC[C@H]3C(=O)O)cc(C)c2o1 [Example 4, (2S)-1-{[7-methyl-2-(2-methylbiphenyl-3-yl)furo[3,2-b]pyridin-5-yl]methyl}piperidine-2-carboxylic Acid] | 7.00 to 8.00
Cc1c(-c2ccccc2)cccc1-c1cc2cc(CNCCO)nc(C)c2o1 [Example 5, 2-({[7-methyl-2-(2-methylbiphenyl-3-yl)furo[2,3-c]pyridin-5-yl]methyl}amino)ethanol] | 7.00 to 8.00
Cc1c(-c2ccccc2)cccc1-c1cc2cc(CN3CCCC[C@H]3C(=O)O)nc(C)c2o1 [Example 6, (2S)-1-{[7-methyl-2-(2-methylbiphenyl-3-yl)furo[2,3-c]pyridin-5-yl]methyl}piperidine-2-carboxylic Acid] | 7.00 to 8.00
Cc1c(-c2ccccc2)cccc1-c1nc2cc(CN3CCCC[C@H]3C(=O)O)ccc2o1 [Example 7, (2S)-1-{[2-(2-methylbiphenyl-3-yl)-1,3-benzoxazol-5-yl]methyl}piperidine-2-carboxylic Acid] | 7.00 to 8.00
Cc1c(-c2ccccc2)cccc1-c1nc2cc(CNCCO)ccc2o1 [Example 8, 2-({[2-(2-methylbiphenyl-3-yl)-1,3-benzoxazol-5-yl]methyl}amino)ethanol] | ≥ 8.00
Cc1c(-c2ccccc2)cccc1-c1cc2cc(CN3CCCC[C@H]3C(=O)O)cnc2o1 [Example 9, (2S)-1-{[2-(2-methylbiphenyl-3-yl)furo[2,3-b]pyridin-5-yl]methyl}piperidine-2-carboxylic Acid] | 6.00 to 7.00
Cc1c(-c2ccccc2)cccc1-c1cc2cc(CNCCO)cnc2o1 [Example 10, 2-({[2-(2-methylbiphenyl-3-yl)furo[2,3-b]pyridin-5-yl]methyl}amino)ethanol] | 7.00 to 8.00
Cc1c(-c2ccccc2)cccc1-c1nc2cc(CN3CCCC[C@H]3C(=O)O)cc(C)c2o1 [Example 11, (2S)-1-{[7-methyl-2-(2-methylbiphenyl-3-yl)-1,3-benzoxazol-5-yl]methyl}piperidine-2-carboxylic Acid] | ≥ 8.00
Cc1c(-c2ccccc2)cccc1-c1nc2cc(CNCCO)cc(C)c2o1 [Example 12, 2-({[7-methyl-2-(2-methylbiphenyl-3-yl)-1,3-benzoxazol-5-yl]methyl}amino)ethanol] | ≥ 8.00
Cc1cc(CN2CCCC[C@H]2C(=O)O)cc2nc(-c3cccc(-c4ccccc4)c3C#N)oc12 [Example 13, (2S)-1-{[2-(2-cyanobiphenyl-3-yl)-7-methyl-1,3-benzoxazol-5-yl]methyl}piperidine-2-carboxylic Acid] | 7.00 to 8.00
Cc1cc(CNCCO)cc2nc(-c3cccc(-c4ccccc4)c3C#N)oc12 [Example 14, 3-(5-{[(2-hydroxyethyl)amino]methyl}-7-methyl-1,3-benzoxazol-2-yl)biphenyl-2-carbonitrile] | ≥ 8.00
Cc1c(-c2ccc3c(c2)OCCO3)cccc1-c1nc2cc(CN3CCCC[C@H]3C(=O)O)cc(C)c2o1 [Example 15, (2S)-1-({2-[3-(2,3-dihydro-1,4-benzodioxin-6-yl)-2-methylphenyl]-7-methyl-1,3-benzoxazol-5-yl}methyl)piperidine-2-carboxylic Acid] | 7.00 to 8.00
Cc1c(-c2ccc3c(c2)OCCO3)cccc1-c1nc2cc(CNCCO)cc(C)c2o1 [Example 16, 2-[({2-[3-(2,3-dihydro-1,4-benzodioxin-6-yl)-2-methylphenyl]-7-methyl-1,3-benzoxazol-5-yl}methyl)amino]ethanol] | ≥ 8.00
Cc1cc(CN2CCCC[C@H]2C(=O)O)cc2nc(-c3cccc(-c4ccc5c(c4)OCCO5)c3C#N)oc12 [Example 17, (2S)-1-({2-[2-cyano-3-(2,3-dihydro-1,4-benzodioxin-6-yl)phenyl]-7-methyl-1,3-benzoxazol-5-yl}methyl)piperidine-2-carboxylic Acid] | 7.00 to 8.00

Compound | pIC50
Cc1cc(CNCCO)cc2nc(-c3cccc(-c4ccc5c(c4)OCCO5)c3C#N)oc12 [Example 18, 2-(2,3-dihydro-1,4-benzodioxin-6-yl)-6-(5-{[(2-hydroxyethyl)amino]methyl}-7-methyl-1,3-benzoxazol-2-yl)benzonitrile] | ≥ 8.00
Cc1c(-c2ccccc2)cccc1-c1nc2cc(CN3CCCC[C@H]3C(=O)O)ccc2s1 [Example 19, (2S)-1-{[2-(2-methylbiphenyl-3-yl)-1,3-benzothiazol-5-yl]methyl}piperidine-2-carboxylic Acid] | 6.00 to 7.00
Cc1c(-c2ccccc2)cccc1-c1cc2nc(CN3CCCC[C@H]3C(=O)O)ccc2o1 [Example 20, (2S)-1-{[2-(2-methylbiphenyl-3-yl)furo[3,2-b]pyridin-5-yl]methyl}piperidine-2-carboxylic Acid] | 6.00 to 7.00
Cc1c(-c2ccccc2)cccc1-c1cc2nc(CNCCO)ccc2o1 [Example 21, 2-({[2-(2-methylbiphenyl-3-yl)furo[3,2-b]pyridin-5-yl]methyl}amino)ethanol] | 7.00 to 8.00
Cc1c(-c2ccccc2)cccc1-c1nc2c(C)cc(CN3CCCC[C@H]3C(=O)O)cc2s1 [Example 22, (2S)-1-{[4-methyl-2-(2-methylbiphenyl-3-yl)-1,3-benzothiazol-6-yl]methyl}piperidine-2-carboxylic Acid] | 7.00 to 8.00
Cc1c(-c2ccccc2)cccc1-c1nc2c(C)cc(CNCCO)cc2s1 [Example 23, 2-({[4-methyl-2-(2-methylbiphenyl-3-yl)-1,3-benzothiazol-6-yl]methyl}amino)ethanol] | 7.00 to 8.00
Cc1c(-c2ccccc2)cccc1-c1cc2nc(CNCCO)cnc2o1 [Example 24, 2-({[6-(2-methylbiphenyl-3-yl)furo[2,3-b]pyrazin-2-yl]methyl}amino)ethanol] | 7.00 to 8.00
Cc1c(-c2ccccc2)cccc1-c1cc2nc(CN3CCCC[C@H]3C(=O)O)cnc2o1 [Example 25, (2S)-1-{[6-(2-methylbiphenyl-3-yl)furo[2,3-b]pyrazin-2-yl]methyl}piperidine-2-carboxylic Acid] | 6.00 to 7.00
Cc1c(-c2ccccc2)cccc1-c1nc2cc(CN3CCCC[C@H]3C(=O)O)c(OCC#N)cc2o1 [Example 26, (2S)-1-{[6-(cyanomethoxy)-2-(2-methylbiphenyl-3-yl)-1,3-benzoxazol-5-yl]methyl}piperidine-2-carboxylic Acid] | ≥ 8.00
Cc1c(-c2ccccc2)cccc1-c1nc2cc(CNCCO)c(OCC#N)cc2o1 [Example 27, {[5-{[(2-hydroxyethyl)amino]methyl}-2-(2-methylbiphenyl-3-yl)-1,3-benzoxazol-6-yl]oxy}acetonitrile] | ≥ 8.00
Cc1c(-c2ccccc2)cccc1-c1nc2cc(CN3CCCC[C@H]3C(=O)O)c(OCCCC#N)cc2o1 [Example 28, (2S)-1-{[6-(3-cyanopropoxy)-2-(2-methylbiphenyl-3-yl)-1,3-benzoxazol-5-yl]methyl}piperidine-2-carboxylic Acid] | ≥ 8.00
Cc1c(-c2ccccc2)cccc1-c1nc2cc(CNCCO)c(OCc3cccc(C#N)c3)cc2o1 [Example 29, 3-({[5-{[(2-hydroxyethyl)amino]methyl}-2-(2-methylbiphenyl-3-yl)-1,3-benzoxazol-6-yl]oxy}methyl)benzonitrile] | 7.00 to 8.00
Cc1c(-c2ccccc2)cccc1-c1nc2cc(CNCCO)c(OCc3ccccn3)cc2o1 [Example 30, 2-({[2-(2-methylbiphenyl-3-yl)-6-(pyridin-2-ylmethoxy)-1,3-benzoxazol-5-yl]methyl}amino)ethanol] | ≥ 8.00
COc1cc2oc(-c3cccc(-c4ccccc4)c3C)nc2cc1CNCCO [Example 31, 2-({[6-methoxy-2-(2-methylbiphenyl-3-yl)-1,3-benzoxazol-5-yl]methyl}amino)ethanol] | ≥ 8.00
Cc1c(-c2ccccc2)cccc1-c1nc2cc(CNCCO)c(OCCN3CCOCC3)cc2o1 [Example 32, 2-({[2-(2-methylbiphenyl-3-yl)-6-(2-morpholin-4-ylethoxy)-1,3-benzoxazol-5-yl]methyl}amino)ethanol] | ≥ 8.00
Cc1c(-c2ccccc2)cccc1-c1nc2cc(CNCCO)ncc2o1 [Example 33, 2-({[2-(2-methylbiphenyl-3-yl)[1,3]oxazolo[5,4-c]pyridin-6-yl]methyl}amino)ethanol] | 7.00 to 8.00
Cc1c(-c2ccccc2)cccc1-c1nc2cc(CNCCO)c(OCCCC#N)c(C)c2o1 [Example 34, 4-{[5-{[(2-hydroxyethyl)amino]methyl}-7-methyl-2-(2-methylbiphenyl-3-yl)-1,3-benzoxazol-6-yl]oxy}butanenitrile] | 7.00 to 8.00
